A short description of data set [1]: Acute toxicity in mice, single oral dose. The settings on record: mouse, in vivo, p.o., 14-day observation. Here is the method: The products were administered orally to mice in a single dose. After a 14-day observation period, the mortality was recorded.
The results are expressed in the form of the 50% lethal dose (LD50) in mg.kg^-1.

Another data set relates to arterial pressure. The data set can be described thus: Norepinephrine-induced arterial hyperpressure in anesthetized rabbits. It is filed as in vivo. The settings on record: Oryctolagus cuniculus, iv, norepinephrine i.v., 50% inhibition of increase in arterial pressure, read-out: Arterial pressure ID50. As for the experimental part:
(§1) 5. Activity on Ureteral Hyperpressure in Rabbits
(§2) An increase in the arterial pressure and the ureteral pressure is induced in anesthetized rabbits by an intravenous injection of norepinephrine. These hyperpressures can be inhibited by the prior administration of molecules with alpha-blocking potential.
The efficacy is assessed by the 50% inhibitory dose (ID50), i.e. the dose which inhibits the increases in arterial and ureteral pressures by 50 percent.

A further data set has as its system ureteral pressure. Description: Norepinephrine-induced ureteral hyperpressure in anesthetized rabbits. It counts as in vivo. The settings on record: for ratio of ID50 arterial pressure to ID50 ureteral pressure: I.V.; for ED50: Oryctolagus cuniculus, iv, norepinephrine i.v., 50% inhibition of increase in ureteral pressure, read-out: Ureteral pressure ID50.
Text: as §1, §2

In data set [2] the target is T1, postsynaptic alpha-adrenergic receptors (Rattus norvegicus, UniProt P43140).
T1 construct: contraction of the isolated vas deferens; from tissue; host or cells: isolated rat vas deferens
T1 sequence (P43140 1-466): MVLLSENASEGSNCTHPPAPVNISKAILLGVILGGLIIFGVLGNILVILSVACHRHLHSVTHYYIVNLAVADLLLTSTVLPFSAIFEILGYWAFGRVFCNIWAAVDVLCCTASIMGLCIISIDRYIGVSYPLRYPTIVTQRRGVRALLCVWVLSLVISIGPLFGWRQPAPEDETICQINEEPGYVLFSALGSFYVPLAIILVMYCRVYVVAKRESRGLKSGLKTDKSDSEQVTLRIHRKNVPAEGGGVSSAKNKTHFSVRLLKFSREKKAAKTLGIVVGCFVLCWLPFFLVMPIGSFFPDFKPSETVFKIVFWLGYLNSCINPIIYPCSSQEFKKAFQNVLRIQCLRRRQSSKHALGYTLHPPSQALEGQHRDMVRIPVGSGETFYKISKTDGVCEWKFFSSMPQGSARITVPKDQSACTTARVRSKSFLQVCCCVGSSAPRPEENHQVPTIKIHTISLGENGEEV
Description: Alpha-blocking activity on isolated rat vas deferens. The settings on record: norepinephrine contraction, -log of product concentration at which norepinephrine concentration must be doubled, read-out: pA2 (converted). It counts as cell-based. The source says: 2. Determination of the Alpha-Blocking Activity on Isolated Rat Vas Deferens
Stimulation of the postsynaptic alpha-adrenergic receptors by norepinephrine causes contraction of the isolated vas deferens. The aim is to find the product concentration in whose presence the norepinephrine concentration must be doubled in order to obtain the same effect as in the absence of said product.
The logarithm of this concentration, with its sign changed, represents the pA2 value of the product.

Data set [3] has as its system toxicity of norepinephrine. The data set can be described thus: Adrenolytic activity in vivo in rats (protection against norepinephrine lethality). The conditions noted are these: for ED50: Rattus norvegicus, oral 30 minutes before i.v. norepinephrine 0.4 mg.kg^-1, dose protecting 50 percent of animals; for protection against the toxicity of norepinephrine (in words): oral. Here is the method: 4. Determination of the Adrenolytic Activity "In Vivo" in Rats
The intravenous injection of norepinephrine (0.4 mg.kg^-1) in wake rats causes the death of 100 percent of the animals. The prior administration of a substance with an alpha-blocking property makes it possible to reduce this toxicity.
The products claimed were administered orally 30 minutes before the intravenous injection of norepinephrine.
These are expressed in the form of the 50% effective dose (ED50), i.e. the dose, in mg.kg^-1, which protects 50 percent of the animals.

Data set [4] can be described thus: Solubility remark in the isolated rat vas deferens test (Table II). It counts as physicochemical. The conditions noted are these: under pA2 in Table II, value N.D.

Structures can show the parent of a compound that is named as a salt.

Compound `CCOc1ccccc1N1CCN(CCOc2cc(C)ccc2C(C)C)CC1` [B 1178, 3-[2-(4-o-ethoxyphenylpiperazin-1-yl)ethoxy]-p-cymene dihydrochloride] registered a 50% lethal dose (LD50) at 336 h in data set [1] of over 1000 mg/kg. The ED50 in the data set with arterial pressure was found to be 3.9 mg/kg. In the data set on ureteral pressure, the “ratio of ID50 arterial pressure to ID50 ureteral pressure” value (“ratio of ID50 arterial pressure” for short) came out at 10.6 and the ED50 was 0.37 mg/kg. The Kb in data set [2] was 72.4 nM. In data set [3], the ED50 stood at 2 mg/kg and the “protection against the toxicity of norepinephrine (in words)” value (“protection against the toxicity” below) is on record as “excellent protection against the toxicity of norepinephrine”.

In the case of `Cc1ccc(C(C)C)c(OCCN2CCN(c3ccccc3Cl)CC2)c1` [B 1299, 3-[2-(4-o-chlorophenylpiperazin-1-yl)ethoxy]-p-cymene hydrochloride], the LD50 at 336 h in data set [1] is over 1000 mg/kg. The Kb in data set [2] was 347 nM. In data set [3], the ED50 is 10 mg/kg and the “protection against the toxicity” value is reported as “excellent protection against the toxicity of norepinephrine”.

Consider `COc1ccc(N2CCN(CCOc3cc(C)ccc3C(C)C)CC2)c(OC)c1` [B 1362], for which, in data set [1], the 50% lethal dose (LD50) at 336 h was 897 mg/kg. The Kb in data set [2] is over 1000 nM. The compound further showed an ED50 in data set [3] of 37.3 mg/kg.

Regarding `Cc1ccc(C(C)C)c(OCCN2CCN(c3ccc(F)cc3)CC2)c1` [B.1055, 3-[2-(4-p-fluorophenylpiperazin-1-yl)ethoxy]-p-cymene dihydrochloride], the LD50 at 336 h in data set [1] was over 1000 mg/kg. Further, in data set [2], the Kb was 468 nM. Besides, in data set [3], the ED50 is over 100 mg/kg.

In data set [1], `Cc1ccc(C(C)C)c(OCCN2CCN(c3ccccc3)CC2)c1` [B.1057, 3-[2-(4-phenylpiperazin-1-yl)ethoxy]-p-cymene dihydrochloride] showed an LD50 at 336 h of over 1000 mg/kg. Besides, the Kb in data set [2] was 398 nM. In data set [3], this compound gave an ED50 of over 100 mg/kg.

For `Cc1ccc(C(C)C)c(OCCN2CCN(c3cccc(C(F)(F)F)c3)CC2)c1` [B.1079, 3-[2-(4-α,α,α-trifluoro-m-tolylpiperazin-1-yl)ethoxy]-p-cymene monohydrochloride], the LD50 at 336 h in data set [1] is over 1000 mg/kg. Moreover, the Kb in data set [2] was over 1000 nM. In data set [3], this compound had an ED50 of over 100 mg/kg.

The compound `CC(=O)c1ccc(N2CCN(CCOc3cc(C)ccc3C(C)C)CC2)cc1` [B.1105, 3-[2-(4-p-acetylphenylpiperazin-1-yl)ethoxy]-p-cymene hydrochloride] showed a 50% lethal dose (LD50) at 336 h in data set [1] of about 540 mg/kg. In data set [2], the Kb is 537 nM. Moreover, in data set [3], the ED50 was 200 mg/kg.

In data set [1], `COc1ccc(N2CCN(CCOc3cc(C)ccc3C(C)C)CC2)cc1` [B.1115, 3-[2-(4-p-methoxyphenylpiperazin-1-yl)ethoxy]-p-cymene dihydrochloride] displayed a median lethal dose (LD50) at 336 h of over 1000 mg/kg. Moreover, in data set [2], the Kb is 288 nM. Besides, in data set [3], the ED50 was determined as 200 mg/kg.

On to `Cc1ccc(C(C)C)c(OCCN2CCN(c3ccc(Cl)cc3C)CC2)c1` [B.1152, 3-[2-4-(4-chloro-2-methyl)phenylpiperazine-1-yl)ethoxy]-p-cymene hydrochloride], for which, in data set [1], the LD50 at 336 h was over 1000 mg/kg. Moreover, the ED50 in data set [3] is over 100 mg/kg. Further, the solubility remark entry in data set [4] is recorded as “insoluble”.

Consider `COc1ccccc1N1CCN(CCOc2cc(C)ccc2C(C)C)CC1` [B.1168, 3-[2-(4-o-methoxyphenylpiperazin-1-yl)-ethoxy]-p-cymene dihydrochloride], for which the median lethal dose (LD50) at 336 h in data set [1] was over 1000 mg/kg. Besides, the Kb in data set [2] was 195 nM. Moreover, in data set [3], the ED50 is 3 mg/kg and the “protection against the toxicity” value is listed as “excellent protection against the toxicity of norepinephrine”.

On to `Cc1ccc(C(C)C)c(OCCN2CCN(c3ccc(Cl)cc3)CC2)c1` [B.1191, 3-[2-(4-p-chlorophenylpiperazin-1-yl)ethoxy]-p-cymene dihydrochloride], for which the LD50 at 336 h in data set [1] is over 1000 mg/kg. In data set [2], the Kb is 331 nM. For the same compound, in data set [3], the ED50 is over 100 mg/kg.

As to `CCOc1cccc(N2CCN(CCOc3cc(C)ccc3C(C)C)CC2)c1` [B.1204, 3-[2-(4-m-ethoxyphenylpiperazin-1-yl)ethoxy]-p-cymene hydrochlroide], in data set [1], the LD50 at 336 h is over 1000 mg/kg. Moreover, the Kb in data set [2] was 1000 nM. In data set [3], the ED50 was found to be 56 mg/kg.

In data set [1], `COc1cccc(N2CCN(CCOc3cc(C)ccc3C(C)C)CC2)c1` [B.1206, 3-[2-(4-m-methoxyphenylpiperazin-1-yl)ethoxy]-p-cymene hydrochloride] registered an LD50 at 336 h of over 1000 mg/kg. Besides, the Kb in data set [2] is 170 nM. The ED50 in data set [3] was determined as 100 mg/kg.

`Cc1ccc(C(C)C)c(OCCN2CCN(c3ccccc3C)CC2)c1` [B.1213, 3-[2-(4-o-methylphenylpiperazin-1-yl)-ethoxy]-p-cymene hydrochloride]: the median lethal dose (LD50) at 336 h in data set [1] is over 1000 mg/kg. Further, in data set [2], the Kb was 1100 nM. For the same compound, the ED50 in data set [3] stood at 15 mg/kg.

With `Cc1ccc(C(C)C)c(OCCN2CCN(c3cc(Cl)ccc3C)CC2)c1` [B.1256], the LD50 at 336 h in data set [1] is over 1000 mg/kg. Besides, the Kb in data set [2] was over 1000 nM. Also, in data set [3], the ED50 was 121 mg/kg.

Compound `Cc1ccc(C(C)C)c(OCCN2CCN(c3ccccc3F)CC2)c1` [B.1261, 3-[2-(4-o-fluorophenylpiperazin-1-yl)ethoxy]-p-cymene hydrochloride] registered an LD50 at 336 h in data set [1] of over 1000 mg/kg. Also, the Kb in data set [2] was 363 nM. Besides, in data set [3], the ED50 amounted to 20 mg/kg.

Compound `Cc1ccc(C(C)C)c(OCCN2CCN(c3c(C)cccc3Cl)CC2)c1` [B.1326] displayed an LD50 at 336 h in data set [1] of over 1000 mg/kg. For the same compound, the Kb in data set [2] was over 1000 nM. Also, the ED50 in data set [3] was over 200 mg/kg.

In data set [1], `Cc1ccc(C(C)C)c(OCCN2CCN(c3ccccc3O)CC2)c1` [B.1338] came in with an LD50 at 336 h of over 1000 mg/kg. Moreover, the ED50 in the data set on arterial pressure is 19 mg/kg; in the data set with ureteral pressure it was 1.6 mg/kg; in data set [3], 6.4 mg/kg. In addition, the “ratio of ID50 arterial pressure” value in the data set with ureteral pressure is 11.8. In data set [2], the Kb was 40.7 nM.

With `CCCCOc1ccccc1N1CCN(CCOc2cc(C)ccc2C(C)C)CC1` [B.1340], in data set [1], the LD50 at 336 h was over 1000 mg/kg. Also, the Kb in data set [2] is over 1000 nM. For the same compound, the ED50 in data set [3] came out at 11.3 mg/kg.

Consider `Cc1ccc(C(C)C)c(OCCN2CCN(c3cccc(O)c3)CC2)c1` [B.1343], for which, in data set [1], the 50% lethal dose (LD50) at 336 h was over 1000 mg/kg. Also, the Kb in data set [2] was 832 nM. Also, in data set [3], the ED50 was 142 mg/kg.

On to `Cc1ccc(N2CCN(CCOc3cc(C)ccc3C(C)C)CC2)c(Cl)c1` [B.1353], for which the LD50 at 336 h in data set [1] is over 1000 mg/kg. Further, the Kb in data set [2] is over 1000 nM. The same compound had an ED50 in data set [3] of 30.9 mg/kg.

`CCCCCOc1ccccc1N1CCN(CCOc2cc(C)ccc2C(C)C)CC1` [B.1356]: the 50% lethal dose (LD50) at 336 h in data set [1] is over 1000 mg/kg. Also, the Kb in data set [2] was over 1000 nM. The compound also yielded an ED50 in data set [3] of 31.1 mg/kg.

`CCCOc1ccccc1N1CCN(CCOc2cc(C)ccc2C(C)C)CC1` [B.1358]: in data set [1], the LD50 at 336 h is over 1000 mg/kg. The ED50 with arterial pressure stood at 5 mg/kg. Further, in the data set on ureteral pressure, the “ratio of ID50 arterial pressure” value came to 4.1 and the ED50 was determined as 1.22 mg/kg. Besides, the Kb in data set [2] is over 1000 nM. In data set [3], the ED50 worked out at 2.1 mg/kg and the “protection against the toxicity” value is given as “excellent protection against the toxicity of norepinephrine”.

In turn, `COc1ccc(OC)c(N2CCN(CCOc3cc(C)ccc3C(C)C)CC2)c1` [B.1387] displayed a median lethal dose (LD50) at 336 h in data set [1] of over 1000 mg/kg. The Kb in data set [2] is 355 nM. In addition, in data set [3], the ED50 is 6.78 mg/kg and the “protection against the toxicity” value is “excellent protection against the toxicity of norepinephrine”.

For the compound `Cc1ccc(C(C)C)c(OCCN2CCN(c3c(C)cccc3C)CC2)c1` [B.1393], the 50% lethal dose (LD50) at 336 h in data set [1] was over 1000 mg/kg. Moreover, the Kb in data set [2] is over 1000 nM. The compound also yielded an ED50 in data set [3] of over 200 mg/kg.

One may read the LD50 as the dose expected to kill half of the subjects tested.
